The structures appear in SMILES notation. Values joined by “and” are separate entries in the source; they are usually repeats but may differ in a detail not shown here. Identical values can stand only once. Toxic doses and inconclusive results are not listed.

The experiment has as its system BDF1 mice, P388 leukemia ip, median survival T/C. The experiment in a line: NCI In Vivo Anticancer Drug Screen. Data for tumor model P388 Leukemia (intraperitoneal) in B6D2F1 (BDF1) mice. Particulars: endpoint: median survival time, higher = longer survival. In a few lines: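 In tumour-bearing mice, survival after compound treatment is set against the vehicle group and given as a quotient.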

Setting [1] is: dose: 100.0 mg/kg/injection, schedule: Q01DX001 (ip), vehicle: saline with Tween-80.
[2] abbreviates: dose: 200.0 mg/kg/injection, schedule: Q01DX001 (ip), vehicle: saline with Tween-80.
[3] abbreviates: dose: 100.0 mg/kg/injection, schedule: Q01DX001 (ip), vehicle: Klucel (hydroxypropylcellulose) (HPC).
The mark [4] stands for this setting: dose: 200.0 mg/kg/injection, schedule: Q01DX001 (ip), vehicle: Klucel (hydroxypropylcellulose) (HPC).
[5] abbreviates: dose: 400.0 mg/kg/injection, schedule: Q01DX001 (ip), vehicle: Klucel (hydroxypropylcellulose) (HPC).
Where [6] appears, read: dose: 25.0 mg/kg/injection, schedule: Q01DX009 (ip), vehicle: saline with Tween-80.
Where [7] appears, read: dose: 100.0 mg/kg/injection, schedule: Q04DX003 (ip), vehicle: saline.
Setting [8] is: dose: 200.0 mg/kg/injection, schedule: Q04DX003 (ip), vehicle: saline.
The mark [9] stands for this setting: dose: 50.0 mg/kg/injection, schedule: Q01DX009 (ip), vehicle: saline with Tween-80.
Setting [10] is: dose: 100.0 mg/kg/injection, schedule: Q01DX009 (ip), vehicle: saline with Tween-80.

Turning to `CC(C)(C)c1ccc2c(cc[n+]3ccccc23)c1`, the T/C reads like this: (dose: 1.56 mg/kg/injection, schedule: Q01DX005 (ip), vehicle: saline with Tween-80) 115 % of control; (dose: 3.13 mg/kg/injection, schedule: Q01DX005 (ip), vehicle: saline with Tween-80) 123 % of control.
`CC(C)(C)c1cccc(C(C)(C)C)c1`: the T/C runs as follows: under setting [1], 100 % of control; under setting [2], 94 % of control.
Consider `ClC1=C(Cl)C(Cl)=C(Cl)C1=NN=C1C(Cl)=C(Cl)C(Cl)=C1Cl`, for which the T/C was 100 % of control (dose: 50.0 mg/kg/injection, schedule: Q01DX001 (ip), vehicle: saline with Tween-80); 95 % of control under setting [1]; 90 % of control under setting [2].
With `COC(=O)C(CO)NC(=O)OCc1ccccc1` (configuration not stated), the T/C by setting is: (dose: 12.5 mg/kg/injection, schedule: Q01DX009 (ip), vehicle: water) 100 % of control; (dose: 25.0 mg/kg/injection, schedule: Q01DX009 (ip), vehicle: water) 100 % of control; (dose: 50.0 mg/kg/injection, schedule: Q01DX009 (ip), vehicle: water) 96 % of control; (dose: 100.0 mg/kg/injection, schedule: Q01DX009 (ip), vehicle: water) 96 % of control; (dose: 200.0 mg/kg/injection, schedule: Q01DX009 (ip), vehicle: water) 100 % of control.
`Cc1ccc2oc(=O)c(-c3cc4oc(=O)sc4cc3O)c(O)c2c1`: the T/C is 100 % of control under setting [3], 100 % of control under setting [4] and 106 % of control under setting [5].
As to `C/C(=N\N)c1ccc(Cl)cc1`, the T/C was 100 % of control (dose: 6.25 mg/kg/injection, schedule: Q01DX009 (ip), vehicle: saline with Tween-80); 104 % of control (dose: 12.5 mg/kg/injection, schedule: Q01DX009 (ip), vehicle: saline with Tween-80); 95 % of control under setting [6].
In the case of `NNC(=O)CCCCCC(=O)NN`, the T/C is 100 % of control (dose: 100.0 mg/kg/injection, schedule: Q01DX001 (ip), vehicle: saline); 110 % of control (dose: 100.0 mg/kg/injection, schedule: Q01DX009 (ip), vehicle: alcohol); 95 % of control under setting [7]; 100 % of control (dose: 200.0 mg/kg/injection, schedule: Q01DX001 (ip), vehicle: saline); 95 % of control (dose: 200.0 mg/kg/injection, schedule: Q01DX009 (ip), vehicle: alcohol); 113 % of control under setting [8]. For the same compound, the T/C is 100 % of control (dose: 400.0 mg/kg/injection, schedule: Q01DX001 (ip), vehicle: saline); 90 % of control (dose: 400.0 mg/kg/injection, schedule: Q01DX009 (ip), vehicle: alcohol); 90 % of control (dose: 400.0 mg/kg/injection, schedule: Q04DX003 (ip), vehicle: saline).
With `NC(=O)N/N=C1/CCCC(C(=O)O)C1` (configuration not stated), the T/C was 91 % of control (dose: 50.0 mg/kg/injection, schedule: Q01DX001 (ip), vehicle: Klucel (hydroxypropylcellulose) (HPC)); 116 % of control under setting [3]; 91 % of control under setting [4]; 95 % of control under setting [5].
Consider `Cc1ccccc1C(O)c1ccccc1Cl` (configuration not stated), for which the T/C reads like this: (dose: 100.0 mg/kg/injection, schedule: Q01DX001 (ip), vehicle: saline sonified) 100 % of control; (dose: 200.0 mg/kg/injection, schedule: Q01DX001 (ip), vehicle: saline sonified) 100 % of control; (dose: 400.0 mg/kg/injection, schedule: Q01DX001 (ip), vehicle: saline sonified) 100 % of control.
Turning to `CN(N=O)C(N)=O`, the T/C (dose: 25.0 mg/kg/injection, schedule: Q04DX003 (ip), vehicle: saline with Tween-80) was 150 % of control and the T/C (dose: 37.5 mg/kg/injection, schedule: Q04DX003 (ip), vehicle: saline with Tween-80) was 154 % of control.
Take `O=C(Nc1cccc(C2=NCCN2)c1)c1ccc(C(=O)Nc2cccc(C3=NCCN3)c2)c(Cl)c1`: the T/C by setting is: (dose: 1.0 mg/kg/injection, schedule: Q01DX010 (ip), vehicle: water) 100 % of control; (dose: 2.0 mg/kg/injection, schedule: Q01DX010 (ip), vehicle: water) 100 % of control; (dose: 4.0 mg/kg/injection, schedule: Q01DX010 (ip), vehicle: water) 100 % of control.
For the compound `CCCCCCCCCCCCCCC1C(=O)NN(c2ccccc2)C1=O` (configuration not stated), the T/C by setting is: (dose: 37.5 mg/kg/injection, schedule: Q01DX009 (ip), vehicle: saline with Tween-80) 108 % of control; (dose: 75.0 mg/kg/injection, schedule: Q01DX009 (ip), vehicle: saline with Tween-80) 115 % of control; (dose: 150.0 mg/kg/injection, schedule: Q01DX009 (ip), vehicle: saline with Tween-80) 122 % of control.
On to `COc1cccc2c1cc([N+](=O)[O-])c1c(C(=O)O)cc3c(c12)OCO3`, for which the T/C by setting is: (dose: 1.25 mg/kg/injection, schedule: Q01DX010 (ip), vehicle: water) 100 % of control; (dose: 2.5 mg/kg/injection, schedule: Q01DX010 (ip), vehicle: water) 118 % of control; (dose: 5.0 mg/kg/injection, schedule: Q01DX010 (ip), vehicle: other) 86 % of control.
As to `COc1c(O)c(O)c2c3c(c(O)c4c2c1C(=O)C=C4C)C(C)(C)C(C)O3` (configuration not stated), the T/C was 104 % of control (dose: 50.0 mg/kg/injection, schedule: Q04DX001 (ip), vehicle: saline); 100 % of control (dose: 100.0 mg/kg/injection, schedule: Q04DX001 (ip), vehicle: saline); 100 % of control (dose: 200.0 mg/kg/injection, schedule: Q04DX001 (ip), vehicle: saline).
Take `C=[CH][Sn]([CH]=C)([CH]=C)[O]C(C)=O`: the T/C is 101 % of control (dose: 1.56 mg/kg/injection, schedule: Q01DX009 (ip), vehicle: Klucel (hydroxypropylcellulose) (HPC)); 91 % of control (dose: 1.56 mg/kg/injection, schedule: Q04DX003 (ip), vehicle: Klucel (hydroxypropylcellulose) (HPC)); 101 % of control and 109 % of control (dose: 3.12 mg/kg/injection, schedule: Q01DX009 (ip), vehicle: Klucel (hydroxypropylcellulose) (HPC)); 92 % of control (dose: 3.12 mg/kg/injection, schedule: Q04DX003 (ip), vehicle: Klucel (hydroxypropylcellulose) (HPC)); 110 % of control and 117 % of control (dose: 6.25 mg/kg/injection, schedule: Q01DX009 (ip), vehicle: Klucel (hydroxypropylcellulose) (HPC)); 94 % of control and 101 % of control (dose: 6.25 mg/kg/injection, schedule: Q04DX003 (ip), vehicle: Klucel (hydroxypropylcellulose) (HPC)). Moreover, the T/C is 153 % of control and 160 % of control (dose: 12.5 mg/kg/injection, schedule: Q01DX009 (ip), vehicle: Klucel (hydroxypropylcellulose) (HPC)); 153 % of control and 162 % of control (dose: 12.5 mg/kg/injection, schedule: Q01DX009 (ip), vehicle: saline); 104 % of control and 106 % of control (dose: 12.5 mg/kg/injection, schedule: Q04DX003 (ip), vehicle: Klucel (hydroxypropylcellulose) (HPC)); 86 % of control (dose: 25.0 mg/kg/injection, schedule: Q01DX009 (ip), vehicle: saline).
In the case of `O=C1CCC(NC2OC(=O)c3ccccc32)C(=O)O1` (configuration not stated), the T/C under setting [9] is 111 % of control; the T/C under setting [10] is 102 % of control; the T/C (dose: 200.0 mg/kg/injection, schedule: Q01DX009 (ip), vehicle: saline with Tween-80) is 109 % of control.
Turning to `CCOC(=O)[C@]1(Br)CC[C@@]1(Br)C(=O)OCC`, the T/C was 112 % of control under setting [6]; 113 % of control and 114 % of control under setting [9]; 117 % of control under setting [10].
In the case of `NOCc1csc(N)n1`, the T/C runs as follows: (dose: 75.0 mg/kg/injection, schedule: Q04DX003 (ip), vehicle: saline) 91 % of control; (dose: 300.0 mg/kg/injection, schedule: Q04DX003 (ip), vehicle: saline) 87 % of control.
Take `O=C(C1=Cc2ccccc2OC1)N1CCN(C(=O)C2=Cc3ccccc3OC2)CC1`: the T/C (dose: 100.0 mg/kg/injection, schedule: Q04DX003 (ip), vehicle: saline with Tween-80) is 91 % of control; the T/C (dose: 200.0 mg/kg/injection, schedule: Q04DX003 (ip), vehicle: saline with Tween-80) was 91 % of control; the T/C (dose: 400.0 mg/kg/injection, schedule: Q04DX003 (ip), vehicle: saline with Tween-80) is 86 % of control.
As for `O=S(=O)(O)c1cc(O)c2cc(Nc3ccccc3)ccc2c1`, the T/C reads like this: (dose: 50.0 mg/kg/injection, schedule: Q04DX003 (ip), vehicle: saline) 104 % of control; under setting [7], 113 % of control; under setting [8], 109 % of control.

The record behind these values is PubChem BioAssay AID328 (DTP/NCI, 2004).
